Data set [1] concerns the target T1, Bromodomain-containing protein 4 (Homo sapiens, UniProt O60885). The data set can be described thus: Binding affinity to BRD4 (unknown origin) at 75 to 100 uM by isothermal titration assay. (ITC needs no label: the signal is the heat of the interaction.)
The nature of data set [2]: Passive permeability of the compound at 2 uM by cell-based assay. Format: physicochemical. To be noted: not told; read-out: permeability.
In data set [3] the target is Histone acetyltransferase p300 (Homo sapiens) (UniProt Q09472). The data set is described as follows: Inhibition of human EP300 (1040 to 1161 residues) expressed in bacterial expression system at 10 uM by bromoscan assay.
Data set [4] has as its target T2, Alpha-1A adrenergic receptor (Homo sapiens, UniProt P35348).
T2 sequence (P35348 whole entry): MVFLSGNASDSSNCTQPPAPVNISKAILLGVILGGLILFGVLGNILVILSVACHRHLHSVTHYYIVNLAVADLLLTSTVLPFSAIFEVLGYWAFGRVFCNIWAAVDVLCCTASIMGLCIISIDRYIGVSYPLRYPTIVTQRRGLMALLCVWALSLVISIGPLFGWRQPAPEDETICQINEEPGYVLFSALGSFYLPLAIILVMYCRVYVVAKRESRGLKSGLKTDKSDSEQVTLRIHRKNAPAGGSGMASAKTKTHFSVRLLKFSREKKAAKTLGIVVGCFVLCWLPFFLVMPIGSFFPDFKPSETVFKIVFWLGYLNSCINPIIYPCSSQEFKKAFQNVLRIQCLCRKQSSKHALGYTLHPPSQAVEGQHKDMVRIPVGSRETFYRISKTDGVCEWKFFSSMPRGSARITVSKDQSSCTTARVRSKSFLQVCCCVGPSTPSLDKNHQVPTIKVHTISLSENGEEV
The data set is described as follows: Displacement of [3H]prazosin from recombinant human adrenergic A1a receptor after 60 mins by scintillation counting method.

Data set [5] can be described thus: Intrinsic clearance in human microsomes at 1 uM. Format: ADME, Microsome.
Data set [6] concerns the target Voltage-gated L-type calcium channel (Homo sapiens, UniProt Q13936+Q13698+Q01668+O60840). The data set is described as follows: Inhibition of L-type calcium channel (unknown origin).
The species entered for the next data set is Homo sapiens. The data set can be described thus: Selectivity ratio of IC50 for BRD4 (unknown origin) to IC50 for CREBBP (unknown origin).
Data set [7] deals with T1, Bromodomain-containing protein 4. The data set is described as follows: Inhibition of BRD4 (unknown origin) by fluorescence polarization assay.
In a further data set the target is CREB-binding protein (Homo sapiens, UniProt Q92793). The data set can be described thus: Inhibition of CREBBP (unknown origin) by FRET assay.
Data set [8] in a line: Lipophilicity, log D of the compound at pH 7.4 by shake flask method. The data set is classed as physicochemical. To be noted: buffer.
In data set [9] the target is T1, Bromodomain-containing protein 4. The data set is described as follows: Inhibition of human BRD4 by fluorescence polarization assay.

The term IC50 denotes the midpoint of a concentration-inhibition curve. For orientation: microsomal CLint means the rate of metabolic loss divided by the concentration. As usually defined, the logD is the decadic logarithm of the distribution of all forms, ionised or not, between an organic phase and buffer at a given pH. Higher therefore signals a more lipophilic compound.

The source made the active and inactive calls. The rule behind the calls is not given here. Bounds are passed on as bounds.

Chain of CREB-binding protein (Q92793 whole entry): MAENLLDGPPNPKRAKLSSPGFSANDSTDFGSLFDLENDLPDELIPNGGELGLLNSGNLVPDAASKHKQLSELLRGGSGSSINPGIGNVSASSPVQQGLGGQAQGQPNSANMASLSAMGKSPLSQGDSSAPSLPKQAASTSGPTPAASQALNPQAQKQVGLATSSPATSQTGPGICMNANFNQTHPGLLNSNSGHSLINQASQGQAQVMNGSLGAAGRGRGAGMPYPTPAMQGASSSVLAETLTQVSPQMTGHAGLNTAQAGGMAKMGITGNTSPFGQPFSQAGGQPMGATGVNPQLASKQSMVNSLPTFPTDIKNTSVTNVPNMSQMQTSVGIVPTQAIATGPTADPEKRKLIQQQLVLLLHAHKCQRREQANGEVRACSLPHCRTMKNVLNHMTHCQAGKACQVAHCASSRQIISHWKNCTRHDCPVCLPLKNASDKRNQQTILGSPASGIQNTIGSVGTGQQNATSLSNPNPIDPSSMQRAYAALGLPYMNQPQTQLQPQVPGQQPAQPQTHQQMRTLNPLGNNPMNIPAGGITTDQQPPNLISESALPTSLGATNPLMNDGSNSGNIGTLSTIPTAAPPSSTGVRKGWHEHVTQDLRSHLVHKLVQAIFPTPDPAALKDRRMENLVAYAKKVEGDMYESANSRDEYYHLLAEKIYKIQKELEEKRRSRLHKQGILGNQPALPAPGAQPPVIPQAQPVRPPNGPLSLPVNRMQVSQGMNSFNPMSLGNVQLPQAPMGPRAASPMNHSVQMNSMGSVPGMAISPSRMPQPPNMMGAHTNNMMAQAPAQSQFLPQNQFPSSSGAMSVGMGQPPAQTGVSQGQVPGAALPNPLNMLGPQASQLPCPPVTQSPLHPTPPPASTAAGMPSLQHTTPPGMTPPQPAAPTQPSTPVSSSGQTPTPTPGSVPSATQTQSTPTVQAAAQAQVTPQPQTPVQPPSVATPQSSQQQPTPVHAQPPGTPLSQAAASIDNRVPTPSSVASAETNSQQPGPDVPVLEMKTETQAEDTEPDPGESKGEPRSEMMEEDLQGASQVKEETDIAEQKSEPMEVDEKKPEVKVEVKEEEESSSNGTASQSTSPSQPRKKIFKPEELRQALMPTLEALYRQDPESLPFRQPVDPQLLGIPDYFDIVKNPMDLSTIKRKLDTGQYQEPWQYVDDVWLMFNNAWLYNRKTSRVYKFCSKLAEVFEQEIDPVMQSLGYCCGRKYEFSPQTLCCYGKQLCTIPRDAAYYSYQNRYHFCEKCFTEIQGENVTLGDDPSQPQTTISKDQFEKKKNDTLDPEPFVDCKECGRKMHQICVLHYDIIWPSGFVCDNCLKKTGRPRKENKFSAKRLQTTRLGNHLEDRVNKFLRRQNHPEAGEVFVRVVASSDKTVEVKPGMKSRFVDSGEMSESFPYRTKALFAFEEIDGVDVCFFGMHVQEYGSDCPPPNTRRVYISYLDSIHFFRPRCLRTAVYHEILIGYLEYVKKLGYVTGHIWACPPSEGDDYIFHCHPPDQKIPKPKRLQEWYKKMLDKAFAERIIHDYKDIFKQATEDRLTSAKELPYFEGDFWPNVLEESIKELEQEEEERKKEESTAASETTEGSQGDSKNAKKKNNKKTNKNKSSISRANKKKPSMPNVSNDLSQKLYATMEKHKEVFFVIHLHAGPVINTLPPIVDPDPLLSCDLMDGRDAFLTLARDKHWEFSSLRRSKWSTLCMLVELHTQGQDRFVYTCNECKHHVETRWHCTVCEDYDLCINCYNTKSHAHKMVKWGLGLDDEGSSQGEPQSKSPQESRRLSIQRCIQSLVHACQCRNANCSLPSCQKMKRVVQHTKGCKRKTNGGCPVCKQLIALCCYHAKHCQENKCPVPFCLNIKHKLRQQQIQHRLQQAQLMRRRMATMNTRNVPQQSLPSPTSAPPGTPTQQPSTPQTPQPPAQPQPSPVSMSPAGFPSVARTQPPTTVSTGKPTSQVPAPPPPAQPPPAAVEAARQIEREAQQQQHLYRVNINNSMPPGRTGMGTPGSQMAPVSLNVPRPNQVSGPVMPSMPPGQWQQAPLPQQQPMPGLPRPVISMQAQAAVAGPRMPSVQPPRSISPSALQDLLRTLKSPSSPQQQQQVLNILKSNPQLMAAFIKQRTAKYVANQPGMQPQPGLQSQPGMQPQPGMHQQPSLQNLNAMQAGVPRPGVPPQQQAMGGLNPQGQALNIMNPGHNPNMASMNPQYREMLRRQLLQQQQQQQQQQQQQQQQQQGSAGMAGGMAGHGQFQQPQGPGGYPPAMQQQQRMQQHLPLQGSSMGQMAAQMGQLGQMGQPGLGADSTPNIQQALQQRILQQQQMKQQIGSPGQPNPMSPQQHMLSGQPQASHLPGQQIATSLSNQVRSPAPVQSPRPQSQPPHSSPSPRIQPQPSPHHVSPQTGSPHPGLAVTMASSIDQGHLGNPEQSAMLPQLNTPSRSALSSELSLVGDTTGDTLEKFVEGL
Chain of Histone acetyltransferase p300 (Homo sapiens) (Q09472 whole entry, the tested form may be a part): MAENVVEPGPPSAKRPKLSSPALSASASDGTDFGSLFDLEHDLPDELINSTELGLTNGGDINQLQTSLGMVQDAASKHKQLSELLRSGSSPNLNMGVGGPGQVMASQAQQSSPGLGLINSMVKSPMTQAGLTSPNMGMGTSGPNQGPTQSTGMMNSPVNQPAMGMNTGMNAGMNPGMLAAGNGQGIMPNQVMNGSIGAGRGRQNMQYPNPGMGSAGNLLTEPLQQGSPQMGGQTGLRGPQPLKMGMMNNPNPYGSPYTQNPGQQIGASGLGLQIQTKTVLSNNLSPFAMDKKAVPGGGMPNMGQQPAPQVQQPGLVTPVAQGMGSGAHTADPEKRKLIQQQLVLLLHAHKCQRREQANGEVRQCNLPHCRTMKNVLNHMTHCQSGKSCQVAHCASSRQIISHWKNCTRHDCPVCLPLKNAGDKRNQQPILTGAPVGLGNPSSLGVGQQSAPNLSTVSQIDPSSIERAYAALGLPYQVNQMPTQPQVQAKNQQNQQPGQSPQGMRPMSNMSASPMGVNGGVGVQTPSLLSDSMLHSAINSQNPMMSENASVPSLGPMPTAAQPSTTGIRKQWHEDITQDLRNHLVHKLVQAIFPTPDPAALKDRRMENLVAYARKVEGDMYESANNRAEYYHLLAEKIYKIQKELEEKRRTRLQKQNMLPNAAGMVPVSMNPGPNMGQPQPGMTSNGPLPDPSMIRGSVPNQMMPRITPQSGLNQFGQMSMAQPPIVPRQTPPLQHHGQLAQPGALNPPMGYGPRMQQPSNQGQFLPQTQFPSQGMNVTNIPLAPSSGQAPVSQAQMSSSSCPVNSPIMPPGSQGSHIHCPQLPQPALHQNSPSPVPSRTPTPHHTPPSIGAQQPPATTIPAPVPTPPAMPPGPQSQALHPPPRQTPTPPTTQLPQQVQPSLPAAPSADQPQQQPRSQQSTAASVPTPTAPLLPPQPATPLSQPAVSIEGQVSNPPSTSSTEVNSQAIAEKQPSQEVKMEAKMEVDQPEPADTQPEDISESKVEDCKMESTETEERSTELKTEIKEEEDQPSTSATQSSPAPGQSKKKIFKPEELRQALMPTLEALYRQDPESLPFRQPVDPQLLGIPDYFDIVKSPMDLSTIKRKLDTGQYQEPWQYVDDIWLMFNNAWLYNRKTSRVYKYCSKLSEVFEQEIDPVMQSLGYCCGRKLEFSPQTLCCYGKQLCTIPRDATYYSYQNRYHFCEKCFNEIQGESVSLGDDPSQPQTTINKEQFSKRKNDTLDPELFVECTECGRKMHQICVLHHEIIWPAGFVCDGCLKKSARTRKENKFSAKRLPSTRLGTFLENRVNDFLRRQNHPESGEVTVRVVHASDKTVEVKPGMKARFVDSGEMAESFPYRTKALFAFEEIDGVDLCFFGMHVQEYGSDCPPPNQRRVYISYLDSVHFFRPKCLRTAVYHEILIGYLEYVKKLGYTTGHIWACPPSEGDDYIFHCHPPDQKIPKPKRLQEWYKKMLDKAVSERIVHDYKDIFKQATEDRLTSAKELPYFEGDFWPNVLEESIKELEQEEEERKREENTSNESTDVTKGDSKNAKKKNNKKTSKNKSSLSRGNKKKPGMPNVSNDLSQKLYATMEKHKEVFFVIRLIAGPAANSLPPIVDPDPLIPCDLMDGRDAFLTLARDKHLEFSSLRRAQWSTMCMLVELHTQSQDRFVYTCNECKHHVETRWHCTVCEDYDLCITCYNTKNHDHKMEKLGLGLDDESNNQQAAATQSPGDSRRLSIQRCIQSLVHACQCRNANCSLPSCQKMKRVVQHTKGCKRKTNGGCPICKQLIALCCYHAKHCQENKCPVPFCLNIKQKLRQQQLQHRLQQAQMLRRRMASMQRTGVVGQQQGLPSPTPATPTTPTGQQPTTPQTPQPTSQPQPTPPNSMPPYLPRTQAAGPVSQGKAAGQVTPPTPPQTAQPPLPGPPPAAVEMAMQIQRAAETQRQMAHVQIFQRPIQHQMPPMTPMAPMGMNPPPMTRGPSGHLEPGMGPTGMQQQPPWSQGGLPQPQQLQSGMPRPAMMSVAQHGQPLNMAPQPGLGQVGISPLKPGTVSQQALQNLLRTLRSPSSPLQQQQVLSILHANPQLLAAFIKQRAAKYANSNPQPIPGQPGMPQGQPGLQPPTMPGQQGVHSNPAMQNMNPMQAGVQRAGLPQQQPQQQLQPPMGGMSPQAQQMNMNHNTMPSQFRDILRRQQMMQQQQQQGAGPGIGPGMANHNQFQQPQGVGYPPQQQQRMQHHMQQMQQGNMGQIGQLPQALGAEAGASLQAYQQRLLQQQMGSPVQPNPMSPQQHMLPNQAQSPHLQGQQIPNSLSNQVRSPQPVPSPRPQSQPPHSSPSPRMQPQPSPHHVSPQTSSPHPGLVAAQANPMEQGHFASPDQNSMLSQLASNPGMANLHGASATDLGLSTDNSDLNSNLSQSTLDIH

Turning to `CCCOc1ccc(CCc2nc3cc(-c4c(C)noc4C)ccc3n2CCN2CCOCC2)cc1`, the result in data set [1] was inactive. The Papp at 2 µM in data set [2] amounted to 7.9 ×10⁻⁶ cm/s. The inhibition entry in data set [3] was “Active”. Further, the half-inhibitory concentration (IC50) came to 0.62 µM in data set [4] and 3 µM in data set [6]. Further, in data set [5], the microsomal CLint at 1 µM was greater than 300 µL/min/mg. Moreover, the Ratio IC50 in the data set filed under Homo sapiens is 62.
In the case of `COc1ccccc1CCc1nc2cc(-c3c(C)noc3C)ccc2n1CCN1CCOCC1`, the IC50 worked out at 13.9 µM in data set [7] and 0.98 µM at CREB-binding protein. For the same compound, in the data set filed under Homo sapiens, the Ratio IC50 amounted to 14.
Taken in the same sequence, the figures for `COc1ccc(OCc2nc3cc(-c4c(C)noc4C)ccc3n2CCN2CCOCC2)cc1` were 9.2 µM, 0.92 µM and 10.
For `COc1ccc(CCc2cc3nc(-c4c(C)noc4C)ccc3n2CCN2CCOCC2)cc1`, the log distribution coefficient (logD) in data set [8] was 3.29. In addition, the Papp at 2 µM in data set [2] amounted to 6.8 ×10⁻⁶ cm/s. Besides, in data set [3], the inhibition entry was “Active”. The IC50 worked out at 18.4 µM in [7] and 0.17 µM on CREB-binding protein. In the data set filed under Homo sapiens, the Ratio IC50 is greater than 100.
Consider `Cc1noc(C)c1-c1ccc2c(c1)nc(CCc1ccc3ccccc3n1)n2CCN1CCOCC1`, for which the half-maximal inhibitory concentration (IC50) in [7] turned out to be 4.9 µM; at CREB-binding protein, 0.16 µM. In the data set listed under Homo sapiens, the Ratio IC50 was found to be 31.
In the case of `Cc1noc(C)c1-c1ccc2c(c1)nc1n2[C@H](CN2CCOCC2)CC1Cc1ccccc1` (single isomer, unassigned; 31) [listing 1 of 2 here], the Ratio IC50 in the data set filed under Homo sapiens worked out at 4.
As to `Cc1noc(C)c1-c1ccc2c(c1)nc1n2[C@H](CN2CCOCC2)CC1Cc1ccccc1` (single isomer, unassigned; 32) [listing 1 of 2 here], the 50% inhibitory concentration (IC50) in [7] is greater than 80 µM; at CREB-binding protein, 1.3 µM.
For the compound `COc1ccc([C@H]2OCC[C@@H]2c2nc3cc(-c4c(C)noc4C)ccc3n2CCN2CCOCC2)cc1`, the half-maximal inhibitory concentration (IC50) was found to be 9.4 µM in data set [7] and 0.14 µM on CREB-binding protein. The Ratio IC50 in the data set listed under Homo sapiens was determined as 67.
On the same counts, the results for `Cc1noc(C)c1-c1ccc2c(c1)nc(-c1cnn3c1CCC3)n2CCN1CCOCC1` are 1.6 µM, 0.13 µM and 12.
For `COc1ccc(CCc2nc3cc(-c4c(C)noc4C)ccc3n2C[C@H](C)N2CCOCC2)cc1Cl`, the IC50 in data set [9] is 5.85 µM.
For `Cc1nc(C)n(-c2ccc3c(c2)nc(CCc2ccccc2)n3CCN2CCOCC2)n1`, the results for the concentration for half-maximal inhibition (IC50) (in [7]; at CREB-binding protein) were greater than 120 µM and greater than 30 µM, respectively.
On the same counts, the results for `Cc1n[nH]c(C)c1-c1ccc2c(c1)nc(CCc1ccccc1)n2CCN1CCOCC1` are greater than 10 µM and 2.4 µM.
As to `Cc1noc(C)c1-c1ccc2c(c1)nc(CCc1cccnc1)n2CCN1CCOCC1`, the concentration for half-maximal inhibition (IC50) was determined as 5.8 µM in [7] and 0.78 µM at CREB-binding protein. Moreover, in the data set filed under Homo sapiens, the Ratio IC50 was found to be 7.4.
On the same counts, the results for `Cc1noc(C)c1-c1ccc2c(c1)nc(COc1ccccc1)n2CCN1CCOCC1` are 14.4 µM, 0.4 µM and 36.
Taken in the same sequence, the figures for `Cc1noc(C)c1-c1ccc2c(c1)nc(CCc1ccccn1)n2CCN1CCOCC1` were 3.2 µM, 0.33 µM and 10.
On the same counts, the results for `CCCCOc1ccc(CCc2nc3cc(-c4c(C)noc4C)ccc3n2CCN2CCOCC2)cc1` are 11.2 µM, 0.26 µM and 43.
Take `Cc1noc(C)c1-c1ccc2c(c1)nc(CCc1ccccc1)n2CC(=O)N1CCOCC1`: the values for the half-inhibitory concentration (IC50) (in data set [7]; on CREB-binding protein) were 13.2 µM and 0.36 µM, respectively. The Ratio IC50 in the data set listed under Homo sapiens was determined as 37.
On the same counts, the results for `Cc1noc(C)c1-c1ccc2c(c1)nc(CCc1c[nH]c3ccccc13)n2CCN1CCOCC1` are 10.1 µM, 0.74 µM and 14.
On the same counts, the results for `Cc1noc(C)c1-c1ccc2c(c1)nc(CCc1ccncc1)n2CCN1CCOCC1` are 4.1 µM, 0.4 µM and 10.
Turning to `Cc1noc(C)c1-c1ccc2c(c1)nc(CCc1ccc(N(C)C)cc1)n2CCN1CCOCC1`, the half-maximal inhibitory concentration (IC50) stood at 4.3 µM in data set [7] and 0.21 µM at CREB-binding protein. Moreover, in the data set filed under Homo sapiens, the Ratio IC50 came out at 20.
As to `Cc1noc(C)c1-c1ccc2c(c1)nc(CCc1ccc(C#N)cc1)n2CCN1CCOCC1`, the results for the IC50 (in [7]; on CREB-binding protein) were 4.9 µM and 0.3 µM, respectively. Moreover, the Ratio IC50 in the data set listed under Homo sapiens was 16.
Taken in the same sequence, the figures for `COc1ccc(CCc2c(C#N)c3cc(-c4c(C)noc4C)ccc3n2CCN2CCOCC2)cc1` were greater than 120 µM, 0.5 µM and greater than 240.
For `Cc1noc(C)c1-c1ccc2c(c1)nc1n2[C@H](CN2CCOCC2)CC1Cc1ccccc1` (single isomer, unassigned; 31) [listing 2 of 2 here], the results for the IC50 (in data set [7]; at CREB-binding protein) were 2 µM and 0.45 µM, respectively.
As for `CC(=O)Nc1ccc(CCc2nc3cc(-c4c(C)noc4C)ccc3n2CCN2CCOCC2)cc1`, the values for the half-inhibitory concentration (IC50) (in [7]; on CREB-binding protein) were 1.4 µM and 0.2 µM, respectively. Further, the Ratio IC50 in the data set listed under Homo sapiens worked out at 7.
Regarding `CCOc1ccc(CCc2nc3cc(-c4c(C)noc4C)ccc3n2CCN2CCOCC2)cc1`, the half-inhibitory concentration (IC50) in [7] stood at 6.6 µM; on CREB-binding protein it was 0.13 µM. Moreover, in the data set filed under Homo sapiens, the Ratio IC50 is 51.
Consider `CCn1cc(-c2ccc3c(c2)nc(CCc2ccccc2)n3CCN2CCOCC2)ccc1=O`, for which the 50% inhibitory concentration (IC50) was determined as 3.9 µM in data set [7] and 0.5 µM on CREB-binding protein.
For `CCCCCOc1ccc(CCc2nc3cc(-c4c(C)noc4C)ccc3n2CCN2CCOCC2)cc1`, the half-inhibitory concentration (IC50) in data set [7] came out at 6.9 µM; at CREB-binding protein it was 0.69 µM. For the same compound, in the data set listed under Homo sapiens, the Ratio IC50 came out at 10.
Turning to `CCc1noc(C)c1-c1ccc2c(c1)nc(CCc1ccccc1)n2CCN1CCOCC1`, the values for the IC50 (in data set [7]; at CREB-binding protein) were 6 µM and 0.31 µM, respectively.
In the case of `COc1ccc(CCc2nc3cc(-c4c(C)noc4C)ccc3n2CCN2CCOCC2)cc1OC`, the half-maximal inhibitory concentration (IC50) in data set [7] worked out at 9.4 µM; on CREB-binding protein, 0.47 µM. In the data set filed under Homo sapiens, the Ratio IC50 was determined as 20.
Taken in the same sequence, the figures for `Cc1noc(C)c1-c1ccc2c(c1)nc(CCc1ccccc1)n2CCN1CCOCC1` were 4.1 µM, 0.24 µM and 17.
On to `COc1cc(-c2ccc3c(c2)nc(CCc2ccccc2)n3CCN2CCOCC2)cccc1=O`, for which the concentration for half-maximal inhibition (IC50) in data set [7] was determined as 0.35 µM; at CREB-binding protein, 0.21 µM.
As to `Cc1noc(C)c1-c1ccc2c(c1)nc(CCc1ccc(OC(C)C)cc1)n2CCN1CCOCC1`, the concentration for half-maximal inhibition (IC50) in [7] worked out at 4.5 µM; at CREB-binding protein, 0.2 µM. For the same compound, the Ratio IC50 in the data set listed under Homo sapiens was determined as 23.
Taken in the same sequence, the figures for `Cc1noc(C)c1-c1ccc2c(c1)nc(CCc1ccc(N)cc1)n2CCN1CCOCC1` were 3.4 µM, 0.09 µM and 38.
Taken in the same sequence, the figures for `COc1cccc(CCc2nc3cc(-c4c(C)noc4C)ccc3n2CCN2CCOCC2)c1` were 4.6 µM, 0.31 µM and 15.
On the same counts, the results for `Cc1noc(C)c1-c1ccc2c(c1)nc([C@@H]1CCO[C@H]1c1ccccc1)n2CCN1CCOCC1` are 0.49 µM, 0.076 µM and 6.
`COc1ccc(CCc2nc3cc(-c4c(C)noc4C)ccc3n2CCN2CCOCC2)c(OC)c1`: the figures for the 50% inhibitory concentration (IC50) (in [7]; at CREB-binding protein) were 8.3 µM and 0.24 µM, respectively. The Ratio IC50 in the data set listed under Homo sapiens worked out at 35.
Compound `Cc1noc(C)c1-c1ccc2c(c1)nc(CCc1ccc(OC(F)(F)F)cc1)n2CCN1CCOCC1` registered an IC50 in data set [7] of 18.5 µM.
For `COc1ccc(CCc2cc3cc(-c4c(C)noc4C)ccc3n2CCN2CCOCC2)cc1`, the half-inhibitory concentration (IC50) in [7] is greater than 120 µM; on CREB-binding protein, 1.5 µM.
Regarding `Cc1noc(C)c1-c1ccc2c(c1)nc(CCc1cncc3ccccc13)n2CCN1CCOCC1`, the half-inhibitory concentration (IC50) was 16.8 µM in data set [7] and 2.5 µM on CREB-binding protein. The Ratio IC50 in the data set filed under Homo sapiens turned out to be 7.
With `Cc1noc(C)c1-c1ccc2c(c1)nc1n2[C@H](CN2CCOCC2)CC1Cc1ccccc1` (single isomer, unassigned; 32) [listing 2 of 2 here], the Ratio IC50 in the data set filed under Homo sapiens is greater than 62.

The values above are taken from ChEMBL document CHEMBL4011614 (J Med Chem, 2017).
